Consider 17 compounds from ChEMBL document CHEMBL4033668, “Inhibitors of cytochrome P450 (CYP) 1B1” (Eur J Med Chem, 2017).

Molecules are shown by their SMILES.

Series [1] concerns the target T1, Cytochrome P450 1B1 (Homo sapiens, UniProt Q16678).
T1 sequence (Q16678 whole entry): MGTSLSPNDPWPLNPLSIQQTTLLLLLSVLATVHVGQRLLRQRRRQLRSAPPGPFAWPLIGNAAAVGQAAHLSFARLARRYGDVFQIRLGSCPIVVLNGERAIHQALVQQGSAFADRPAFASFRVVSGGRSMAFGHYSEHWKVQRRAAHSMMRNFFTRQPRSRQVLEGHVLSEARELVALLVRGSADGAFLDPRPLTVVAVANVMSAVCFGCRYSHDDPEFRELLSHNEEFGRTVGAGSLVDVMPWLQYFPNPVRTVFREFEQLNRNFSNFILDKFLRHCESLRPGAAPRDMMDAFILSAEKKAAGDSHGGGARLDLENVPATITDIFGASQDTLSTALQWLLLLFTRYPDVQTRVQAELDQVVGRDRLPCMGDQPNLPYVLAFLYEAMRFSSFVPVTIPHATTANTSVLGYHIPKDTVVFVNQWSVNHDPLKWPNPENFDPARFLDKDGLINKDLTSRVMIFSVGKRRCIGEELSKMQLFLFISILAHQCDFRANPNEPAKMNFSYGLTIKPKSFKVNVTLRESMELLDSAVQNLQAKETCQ
Description: Competitive inhibition of CYP1B1 (unknown origin) expressed in yeast microsomes using (-)benzo[a]pyrene-7R-trans-7,8-dihyrodiol (B[a]P-7,8-diol) as substrate.

The target of series [2] is T1, Cytochrome P450 1B1. Description: Inhibition of CYP1B1 in […] recombinant human cytochrome P450 oxidoreductase using 7-ethoxyresorufin as substrate after 3 mins in presence of NADP+ by fluorescence assay. Background: Microsomes from liver hold many membrane-bound enzymes, among them those of drug oxidation.
Series [3] deals with T1, Cytochrome P450 1B1. In words: Inhibition of human CYP1B1 expressed in Escherichia coli DH5alpha coexpressing human NADPH P450 reductase using 7-ethoxyresorufin as substrate in presence of NADP+ by fluorimetric analysis.
The species entered for series [4] is Homo sapiens. Description: Selectivity index, ratio of IC50 for human CYP1A1 expressed in Escherichia coli DH5alpha coexpressing human NADPH P450 reductase to IC50 for human CYP1B1 expressed in Escherichia coli DH5alpha coexpressing human NADPH P450 reductase.
The target of series [5] is T1, Cytochrome P450 1B1. Description: Inhibition of human CYP1B1 expressed in Escherichia coli DH5alpha coexpressing human NADPH P450 reductase using 7-ethoxyresorufin as substrate in presence of NADP+ by spectrofluorometeric analysis.
For series [6], the target named is T2, Cytochrome P450 1A1 (Homo sapiens, UniProt P04798).
T2 sequence (P04798 whole entry): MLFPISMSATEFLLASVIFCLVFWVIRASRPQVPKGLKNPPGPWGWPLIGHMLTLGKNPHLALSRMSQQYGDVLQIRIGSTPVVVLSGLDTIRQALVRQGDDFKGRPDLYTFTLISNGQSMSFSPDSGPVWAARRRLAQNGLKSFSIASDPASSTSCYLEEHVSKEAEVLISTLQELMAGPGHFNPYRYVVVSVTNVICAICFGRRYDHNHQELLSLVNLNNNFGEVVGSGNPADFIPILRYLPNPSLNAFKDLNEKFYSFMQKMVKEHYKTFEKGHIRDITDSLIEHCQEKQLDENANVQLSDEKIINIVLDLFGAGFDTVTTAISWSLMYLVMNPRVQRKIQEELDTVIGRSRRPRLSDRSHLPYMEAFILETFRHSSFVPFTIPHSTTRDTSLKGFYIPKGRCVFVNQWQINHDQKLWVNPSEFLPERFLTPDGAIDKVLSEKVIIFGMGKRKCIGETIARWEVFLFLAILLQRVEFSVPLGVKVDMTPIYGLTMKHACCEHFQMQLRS
Description: Competitive inhibition of […] CYP1A1 expressed in supersomes coexpressing NADPH-CYP reductase using 7-Ethoxyresorufin as substrate measured every 5 mins for 30 mins in presence of NADPH by fluorescence assay. Particulars: read-out: Ki(app). Format: ADME.

The target of series [7] is T1, Cytochrome P450 1B1. In words: Inhibition of human CYP1B1 expressed in Escherichia coli DH5alpha coexpressing human NADPH-P450 reductase using 4-estradiol as substrate in presence of NADP+ by HPLC analysis.
Series [8] has as its target T1, Cytochrome P450 1B1. Description: Inhibition of recombinant CYP1B1 (unknown origin) expressed in Escherichia coli DH5alphaF'Iq coexpressing human NADPH-P450 reductase using E2-d4 as substrate after 10 mins in presence of NADP+.
A further series deals with T3, CYP1B1 (Homo sapiens, UniProt Q16678).
T3 sequence (Q16678 whole entry): T1 sequence (Q16678 whole entry)
Description: (§1) Inhibition of CYP1B1 (unknown origin) expressed in Escherichia coli DH5alpha coexpressing human NADPH P450 reductase using 7-ethoxyresorufin as substrate after 2 to 6 mins in presence of NADPH by double reciprocal plot analysis. The note with it: human, probe 7-ethoxyresorufin.

The target in series [9] is T1, Cytochrome P450 1B1. The series is described as §1.
Series [10] has as its target T2, Cytochrome P450 1A1. Description: Inhibition of CYP1A1 (unknown origin) expressed in Escherichia coli DH5alpha coexpressing human NADPH-P450 reductase using 7-Ethoxyresorufin as substrate up to 6 mins in presence of NADP+ by spectrofluorometric analysis. Format: ADME.
The target in series [11] is T1, Cytochrome P450 1B1. Description: Inhibition of CYP1B1 (unknown origin) expressed in Escherichia coli DH5alpha coexpressing human NADPH-P450 reductase using 7-Ethoxyresorufin as substrate up to 6 mins in presence of NADP+ by spectrofluorometric analysis.
In a further series the target is T4, Cytochrome P450 1A2 (Homo sapiens, UniProt P05177).
T4 sequence (P05177 whole entry): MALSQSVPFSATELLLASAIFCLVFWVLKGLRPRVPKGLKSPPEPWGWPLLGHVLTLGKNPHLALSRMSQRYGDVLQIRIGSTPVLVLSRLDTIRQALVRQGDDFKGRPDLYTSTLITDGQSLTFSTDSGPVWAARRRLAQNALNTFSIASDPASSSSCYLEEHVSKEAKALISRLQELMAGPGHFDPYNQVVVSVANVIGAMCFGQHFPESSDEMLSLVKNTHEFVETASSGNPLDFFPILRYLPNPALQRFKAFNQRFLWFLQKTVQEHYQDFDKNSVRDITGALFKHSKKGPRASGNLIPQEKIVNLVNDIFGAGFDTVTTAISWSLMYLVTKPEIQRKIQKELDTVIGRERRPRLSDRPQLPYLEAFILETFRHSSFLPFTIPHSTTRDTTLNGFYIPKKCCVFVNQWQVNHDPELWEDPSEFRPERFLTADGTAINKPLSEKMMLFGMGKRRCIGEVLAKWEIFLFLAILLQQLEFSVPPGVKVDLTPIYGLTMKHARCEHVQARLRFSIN
In words: Inhibition of CYP1A2 (unknown origin) expressed in Escherichia coli DH5alpha coexpressing human NADPH-P450 reductase using 7-Ethoxyresorufin as substrate up to 6 mins in presence of NADP+ by spectrofluorometric analysis. Format: ADME.

Series [12] deals with T2, Cytochrome P450 1A1. In words: Inhibition of recombinant human CYP1A1 expressed in supersomes coexpressing NADPH-CYP reductase using 7-ethoxyresorufin as substrate after 15 mins in presence of NADP+ by Lineweaver-Burk plot analysis. Format: ADME.
Series [13] concerns the target T1, Cytochrome P450 1B1. In words: Inhibition of recombinant human CYP1B1 expressed in Escherichia coli coexpressing human NADPH-cytochrome P450 reductase using 7-ethoxyresorufin as substrate by fluorescence spectrophotometric analysis.
The species entered for series [14] is Homo sapiens. Description: Selectivity index, ratio of IC50 for recombinant human CYP1A1 expressed in Escherichia coli coexpressing human NADPH-cytochrome P450 reductase to IC50 for recombinant human CYP1B1 expressed in Escherichia coli coexpressing human NADPH-cytochrome P450 reductase.
Series [15] deals with T2, Cytochrome P450 1A1. Description: Inhibition of recombinant human CYP1A1 expressed in Escherichia coli coexpressing human NADPH-cytochrome P450 reductase using 7-ethoxyresorufin as substrate by fluorescence spectrophotometric analysis. Format: ADME.

On Cytochrome P450 1B1 [1], `CC(C)=CCOc1c2occc2cc2ccc(=O)oc12` [PENTOSALEN] showed a Ki of 1000 nM. Take `COc1ccc(-c2coc3cc(O)ccc3c2=O)cc1` [FORMONONETIN]: the Ki at Cytochrome P450 1B1 [2] came out at 3700 nM. For the compound `c1ccc2c(c1)ccc1cc3c(ccc4ccccc43)cc12`, on Cytochrome P450 1B1 [3], the IC50 (as a rule, the midpoint of a concentration-inhibition curve) came to 9 nM. As for `c1cc2ccc3cccc4ccc(c1)c2c34`, the Ratio IC50 in the series listed under Homo sapiens [4] worked out at 20.5. On to `O=c1cc(-c2ccccc2)oc2cc(O)ccc12` [7-HYDROXYFLAVONE], for which, at Cytochrome P450 1B1 [5], the IC50 was found to be 250 nM. Regarding `C=C(C)[C@@H]1CCC(C)=C[C@H]1c1c(O)cc(CCCCC)cc1O` [CANNABIDIOL], the Ki at Cytochrome P450 1A1 [6] amounted to 150 nM. As for `O=c1cc(-c2ccccc2)oc2cccc(O)c12` [5-HYDROXYFLAVONE], at Cytochrome P450 1B1 [5], the IC50 worked out at 210 nM. With `COc1ccc2cc3[n+](cc2c1OC)CCc1cc(O)c(O)cc1-3`, the IC50 at Cytochrome P450 1B1 [7] was 9900 nM.

For the compound `COc1c(O)ccc2c1CC[C@@H]1[C@@H]2CC[C@]2(C)[C@@H](O)CC[C@@H]12`, the Ki at Cytochrome P450 1B1 [8] is 149000 nM. In the case of `CC(C)=CCC/C(C)=C/COc1c2ccoc2cc2oc(=O)ccc12` [BERGAMOTTIN], at Cytochrome P450 1B1 [1], the Ki turned out to be 587000 nM. Still for that read-out and setting: the value for `CC(C)=CCOc1c2ccoc2cc2oc(=O)ccc12` [ISOIMPERATORIN] was 6000 nM.

Take `CC#Cc1ccc(-c2ccccc2)cc1`: the kinact – broadly, the maximal first-order rate at which the target is inactivated – at CYP1B1 is 0.000667 s⁻¹. The Ki on Cytochrome P450 1B1 [9] is 2300 nM. `COc1c(O)ccc2cc3[n+](cc12)CCc1cc2c(cc1-3)OCO2` [THALIDENDINE]: the IC50 on Cytochrome P450 1B1 [7] was found to be 4100 nM. For the compound `N#C[Se]Cc1ccccc1` [BENZYLSELENOCYANATE], the IC50 on Cytochrome P450 1A1 [10] was in the range of 100 to 450 nM; at Cytochrome P450 1B1 [11] it was 130 to 270 nM; at Cytochrome P450 1A2, 200 to 1300 nM.

For the compound `COc1cc(O)cc(/C=C/c2ccc(O)cc2)c1`, the Ki on Cytochrome P450 1A1 [12] was 130 nM. On to `O=c1c(O)c(-c2ccccc2)oc2ccccc12` [FLAVONOL], for which the IC50 on Cytochrome P450 1B1 [5] was determined as 90 nM. As for `O=C1c2ccccc2C(=O)c2c(O)c(O)cc(O)c21` [PURPURIN], the IC50 at Cytochrome P450 1B1 [13] came out at 2200 nM; at Cytochrome P450 1A1 [15], 5500 nM. Further, at Cytochrome P450 1B1 [13], the Ki worked out at 700 nM. Besides, the Ratio IC50 in the series filed under Homo sapiens [14] stood at 2.5.
